Assay results: patent US11370766B2, “Sulfonyl amidine as indoleamine-2,3-dioxygenase inhibitor, and preparation method therefor and use thereof” (SHANGHAI LONGWOOD BIOPHARMACEUTICALS CO., LTD., priority 2016, dated 2022)
Like-named read-outs stand apart in the source and are kept apart here.

How the values were obtained:
[1] = biological target: T1, IDO1 (Homo sapiens, UniProt P14902); test: IDO1 enzyme activity test (NFK Green); type: biochemical; conditions: 10 nM IDO1, 100 uM L-tryptophan, NFK green fluorescence; read-out: IDO IC50
T1 construct: purchased NTRC NTRC-hTDO-1K
Protocol: 1. IDO1 Enzyme Activity Test Method (NFK Green)
Content of research: the inhibitory effect of the compound on the activity of IDO1 enzyme was examined.
IDO assay kit (NTRC, Cat. No. NTRC-hTDO-1K), DMSO (Sigma, Cat. No. D2650), 384-well plate_compound dilution plate (Greiner, Cat. No. 781280), 384-well plate_test plate (Perkin Elmer, Cat. No. 6007299)
10 nM IDO1 was incubated with compound or DMSO at 23° C. for 30 minutes, and L-type tryptophan was added at a final concentration of 100 uM and reacted for 1.5 hours. NFK green was added and incubated at 37° C. for 4 hours, and fluorescence signal data (excitation band, 400/25; emission band, 510/20) was corrected with Envision. Data analysis and mapping was conducted by XLfit5 software.
The test compounds and the reference compound LW3018 were finally tested at concentrations ranging from […] to 0.51 nM, 3-fold gradient dilution, 10 concentrations, and two replicate wells.

[2] = biological target: T2, IDO1 in Hela cells (Homo sapiens, UniProt P14902); test: IDO cytology test (LC-MS), kynurenine in IFN-gamma-stimulated Hela cells; type: cell-based; conditions: interferon gamma 100 ng/mL, 20 h, kynurenine by LC/MS
T2 construct: endogenous in cells; host or cells: Hela cells, IFN-gamma stimulated
From the text: 2. IDO Cytology Test Method (LC-MS)
Content of research: the inhibitory effect of the compound on the activity of IDO1 in Hela cells was examined.
RPMI 1640 (phenol red free) medium (Invitrogen Cat. No. 11835030), fetal bovine serum (Invitrogen Cat. No. 10099141), penicillin and streptomycin (Invitrogen Gibco Cat. No. 15140-122), recombinant human interference γ (R&D system, Cat. No. 285-IF-100). 5% (w/v) trichloroacetic acid (Alfa Aesar Cat. No. A11156), DMSO (Sigma, Cat. No. D2650), 96-well plate_compound dilution plate (Axygen, Cat. No. WIPP02280), 96-well plate_test plate (Greiner, Cat. No. 655090)
The test compounds and the reference compound LW3018 were finally tested at concentrations ranging from […] to 0.76 nM, 3-fold gradient dilution, 9 concentrations, and two replicate wells.
Hela cells were plated in 96-well cell culture plates at a number of 40,000 cells per well, and incubated with RPMI 1640 containing 10% fetal bovine serum for 5-6 hours. The diluted test compound and recombinant human interferon gammaa (final concentration at 100 ng/mL) were added to activate IDO1 expression. The cells were cultured in a 37° C. cell incubator which was enriched with 5% carbon dioxide for 20 hours, and the reaction was stopped with 5% trichloroacetic acid and incubated for 30 minutes at 50° C. After the cell culture solution was precipitated, the supernatant was sent to LC/MS to detect the content of kynurenine. Data analysis and mapping was conducted by XLfit5 software.

[3] = system: mouse colorectal cancer CT26 transplanted tumor; test: In vivo efficacy test of mouse colorectal cancer CT26 transplanted tumor
Protocol: Example 5 In Vivo Efficacy Test of Mouse Colorectal Cancer CT26 Transplanted Tumor
Under sterile conditions, CT26 cells in the proliferative phase were harvested, cell concentration was adjusted after digestion, and inoculated into the right hind limb of the mouse. Each mouse was inoculated with 1×10^5 CT26 cells in an inoculation volume of 0.1 mL. Four days after the inoculation, the average tumor volume was close to 20-30 mm^3, and the mouse was administered in a randomized group. The day of administration was recorded as DO, and the negative control was given same amount of vehicle. Co-administration of LW 105-1-1 with Anti-CTLA4 antibody was also tested in this experiment. After the administration was started, the tumor long diameter and short diameter were measured 3 times per week.

[4] = Pharmacokinetics of LW105-1-1 in mice; type: in vivo; conditions: plasma, male C57BL/6 mice; for AUC(0-t): male, C57BL/6, mouse; for MRT last: read-out: MRT0-last; for bioavailability: after dose standardization, read-out: F% (absolute bioavailability); for Cmax: read-out: Cmax (head printed as image)
Protocol: 18 male C57BL/6 mice were intragastrically or intravenously administered with compound LW105-1-1 (Table 3).
The preparation containing 5% DMA and 20% HPbCD aqueous solution as a solvent was administered by intravenous injection, and a preparation containing a solution comprising 5% DMA, 20% HPbCD and 0.1% CREMOPHOR EL as a solution was intragastrically administered. The animal strain was male C57BL/6 mice. Prior to the animal experiment, all animals were fasted and fed 4 hours after dosing; all animals were given free access to water.
Intravenous administration group: before administration, 0.083, 0.25, 0.5, 1, 2, 4, 8 and 24 hours after.
Oral administration group: before administration, 0.25, 0.5, 1, 2, 4, 8 and 24 hours after
Whole blood samples (0.03 mL) were collected from the saphenous vein at the indicated time (or other suitable blood collection sites), and all blood samples were added to a plastic centrifuge tube pre-filled with K2-EDTA anticoagulant and labeled. After the blood sample was collected, centrifuged for 10 minutes under 2 to 8° C. at 3000 g, and the supernatant plasma was aspirated, and quickly placed in dry ice, and kept at −20° C. or lower for LC-MS/MS analysis.
The concentrations of all samples were analyzed using LC-MS/MS. Plasma mean concentrations were processed using a non-compartmental model of WinNonlin™ Version 6.3 (Pharsight, Mountain View, Calif.) pharmacokinetic software, and pharmacokinetic parameters were calculated by linear logarithmic trapezoidal method.

T1 sequence (P14902 whole entry): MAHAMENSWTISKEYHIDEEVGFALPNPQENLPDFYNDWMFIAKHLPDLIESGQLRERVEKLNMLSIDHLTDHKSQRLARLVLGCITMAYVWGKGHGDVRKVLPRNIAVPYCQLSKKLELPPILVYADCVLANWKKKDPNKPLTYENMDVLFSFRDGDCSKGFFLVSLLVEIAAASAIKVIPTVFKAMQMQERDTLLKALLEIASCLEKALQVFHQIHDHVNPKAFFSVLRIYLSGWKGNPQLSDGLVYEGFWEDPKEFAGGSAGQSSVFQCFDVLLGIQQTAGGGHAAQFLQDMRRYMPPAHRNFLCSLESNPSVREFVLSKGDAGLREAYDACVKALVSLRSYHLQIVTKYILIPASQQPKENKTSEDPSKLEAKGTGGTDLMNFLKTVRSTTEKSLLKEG
T2 sequence (P14902 whole entry): as above

In the case of `CS(=N)(=O)NCCNc1nonc1C(=NO)Nc1ccc(F)c(Br)c1` (racemic) [LW105-1-1], the IC50 [1] is reported as 22.3 nM, the IC50 [2] is reported as 11.5 nM and the tumor inhibition rate ([3]; mouse CT26 model, 300 mg/kg oral twice a day) is reported as 40.6%. For the same compound, the anti-tumor growth effect ([3]; mouse CT26 model, 30, 100, 300 mg/kg oral) was “dose-dependent anti-tumor growth effect”, the AUC(0-t) ([4]; iv, 3 mg/kg, intravenous 3 mg/kg) was 1430 ng·h/mL and the AUC(0-t) ([4]; po, 30 mg/kg, oral gavage 30 mg/kg) was 10100 ng·h/mL. The AUC(0-t) ([4]; po, 100 mg/kg, oral gavage 100 mg/kg) was 39400 ng·h/mL, the half-life ([4]; mouse, 3 mg/kg, heading: T1/2, intravenous 3 mg/kg) was 0.688 h and the AUC(0-inf) ([4]; mouse, intravenous 3 mg/kg) was 1450 ng·h/mL. It also gave a C0 ([4]; mouse, intravenous 3 mg/kg) of 2560 ng/mL, a clearance ([4]; mouse, intravenous 3 mg/kg) of 34.5 mL/min/kg and an MRT last ([4]; mouse, intravenous 3 mg/kg) of 0.904 h. For the same compound, the Vd ([4]; mouse, intravenous 3 mg/kg, read-out: steady-state volume (Vdss)) was 1.87 L/kg, the AUC(0-inf) ([4]; mouse, oral gavage 30 mg/kg) was 10100 ng·h/mL and the Tmax ([4]; mouse, oral gavage 30 mg/kg) was 0.5 h. The bioavailability ([4]; mouse, oral gavage 30 mg/kg) was 69.9%, the Cmax ([4]; mouse, oral gavage 30 mg/kg) was 4810 ng/mL and the MRT last ([4]; mouse, oral gavage 30 mg/kg) was 3.11 h. It also gave a half-life ([4]; mouse, oral gavage 30 mg/kg, read-out: T1/2 (converted)) of 2.7 h, an AUC(0-inf) ([4]; mouse, oral gavage 100 mg/kg) of 39300 ng·h/mL and a Tmax ([4]; mouse, oral gavage 100 mg/kg) of 0.25 h. The bioavailability ([4]; mouse, oral gavage 100 mg/kg) was 81.4%, the Cmax ([4]; mouse, oral gavage 100 mg/kg) was 20700 ng/mL and the MRT last ([4]; mouse, oral gavage 100 mg/kg) was 1.99 h. It also gave a half-life ([4]; mouse, oral gavage 100 mg/kg, read-out: T1/2 (converted)) of 2.11 h.
Work on `CC(C)S(=N)(=O)NCCNc1nonc1C(=NO)Nc1ccc(F)c(Br)c1` (stereo not drawn) [LW105-1-3] yielded an IC50 [1] of 19.4 nM and an IC50 [2] of 12.7 nM.
`N=S(=O)(NCCNc1nonc1C(=NO)Nc1ccc(F)c(Br)c1)C1CC1` (stereo not drawn) [LW105-1-4] showed an IC50 [1] of 29.4 nM and an IC50 [2] of 7.2 nM.
For `CCS(=N)(=O)NCCNc1nonc1C(=NO)Nc1ccc(F)c(Br)c1` (stereo not drawn) [LW105-1-2], the IC50 [1] was 25.2 nM and the IC50 [2] was 15.6 nM.
Work on `CS(=N)(=O)NCCCNc1nonc1C(=NO)Nc1ccc(F)c(Br)c1` (stereo not drawn) [LW105-1-11] yielded an IC50 [1] of 26.5 nM and an IC50 [2] of 11.1 nM.
